Patent publication US9464291B2, “Methods and compositions for the treatment of cancer” (University of South Alabama, priority 2012, dated 2016)
Entries after “also recorded” stand apart in the source; their conditions may differ. Starred links: 1 amine or outer side, 2 acyl side, 3 side chain; linkers in the order of their positions; H or OH if unused. Positions of bridges follow the written chain, without caps; N, C: chain ends. Non-standard residues stand in square brackets, D forms with d. Residues, ends and D or L forms follow the SMILES beside them. Chains are numbered I, II in the order given. Actinocin(9to1) = Cc1c2oc3c(C)ccc(C(=O)[*:1])c3nc-2c(C(=O)[*:2])c(N)c1=O; NMeV = CN[C@H](C(=O)O)C(C)C; Nle = CCCC[C@H](N)C(=O)O; Sar = CNCC(=O)O

B1: interleukin 1-α: interleukin 1-α (protein, UniProt P01583 113-271, looked up)
Interleukin-1 alpha: SAPFSFLSNVKYNFMRIIKYEFILNDALNQSIIRANDQYLTAAALHNLDEAVKFDMGAYKSSKDDAKITVILRISKTQLYVTAQDEDQPVLLKEMPEIPKTITGSETNLLFFWETHGTKNYFTSVAHPNLFIATKQDYWVCLAGGPPSITDFQILENQA

Legend:
OPN promoter = OPN promoter luciferase reporter assay in melanoma cell lines; type: cell-based, human; conditions: MDA-MB-435, MCC012A, MCC012F
Experimental: Empty pGL3 vector was used as control. Hedgehog ligands were added to the well 6 h prior to harvesting the cells (approximately 33 hr of initiation of transfection) for assay. Readings were normalized to total protein content. Each parameter was studied in triplicate and the experiment repeated at least 3 times. The data are represented as percent luciferase activity, which was derived as a percent of the relative light units in treated groups compared with the untreated groups.

ERCC1 = conditions: human ovarian cancer cells after cisplatin exposure; cited from earlier work
RAW264.7 cells [1] = test: Osteoclast differentiation, TRAP assay, RAW264.7; type: cell-based, murine; conditions: DM supplemented with SHH (100 nM) or OPN (100 ng/ml) vs DM alone
Experimental: Cell lines—Human metastatic breast cancer cells, MDA-MB-231, were cultured in Dulbecco's Modified Eagle's Medium (DMEM/F12; Invitrogen, Carlsbad, Calif.), supplemented with 2 mM L-glutamine, 1 mM sodium pyruvate, 0.02 mM non-essential amino acids, 5% fetal bovine serum, FBS (Atlanta Biologicals, Norcross, Ga.), without antibiotics or antimycotics (cDME/F12). SUM1315 and SUM159 cells (DiMeo, T. A., et al. (2009) Cancer Res 69, 5364-5373) (Asterand, Detroit, Mich.) were cultured in DMEM/F12 supplemented with […] insulin, 5% FBS (Atlanta Biologicals) and either 10 ng/ml EGF or 1 ng/ml hydrocortisone, without antibiotics or antimycotics. The SUM1315 cells are derived from a metastasis in a patient with infiltrating ductal carcinoma; SUM159 cells were derived from a primary breast tumor with metaplastic ccarcinoma. RAW264.7 (ATCC, TIB 71) cells, a murine pre-osteoclastic line capable of differentiation and mineralization in culture (in presence of RANKL and MCSF), were grown in DMEM with L-glutamine (ATCC, 30-2002) supplemented with 10% FBS. A 2× differentiation medium (DM) was formulated for the RAW 264.7 cells comprising RAW264.7 growth medium supplemented with 20% FBS, RANKL (100 ng/ml) and M-CSF (40 ng/ml) (Matsubara, T., et al. J Bone Miner Res 25, 1068-1076). Conditioned media was harvested from breast cancer cells and mixed in a 1:1 ratio with double strength differentiation medium to assess the effect on osteoclast differentiation. 1×DM was used as control or wherever SHH (R & D Systems, Minneapolis, Minn.) or OPN (R & D Systems) was used alone. The medium on the RAW264.7 cells was replenished every 48 hours. In order to assess the effect of secreted Hh ligands, the neutralizing 5E1 antibody was used (Developmental Studies Hybridoma Bank, at the University of Iowa, Iowa). The amount of 5E1 antibody used for the studies was determined following titration of the antibody with respect to its effects on osteoclast differentiation. Medium was supplemented with 5E1 (2.5 μg/ml) and was changed on alternate days until the end of the experiment. The effect of OPN on osteoclast activity was assessed by transfecting an OPN shRNA-expressing construct on day 6 post-induction of differentiation. Fresh DM was added the following day and cells were allowed to grow for another 12 hours before termination of experiment. GLI1 expression was silenced in the SUM1315 cells using shRNA targeting GLI1 into pSuperior. gfp+neo (Oligoengine, Wash., USA). […]
Osteoclast differentiation and activity assays—Tartarate-resistant acid phosphatase (TRAP) assay was conducted for RAW 264.7 following the manufacturer's protocol (Sigma, St. Louis, Mo.). […] The percentage of area resorbed was calculated using the NIS-Elements BR. […]

RAW264.7 cells [2] = test: Osteoclast resorption activity, OAAS plates; type: cell-based, murine; conditions: DM supplemented with SHH (100 nM) or OPN (100 ng/ml)
Experimental: Osteoclast differentiation and activity assays—Tartarate-resistant acid phosphatase (TRAP) assay was conducted for RAW 264.7 following the manufacturer's protocol (Sigma, St. Louis, Mo.). This assay was indicative of the extent of differentiation. OAAS plates (Osteogenic Core Technologies, Choongnam, Republic of Korea) were utilized to measure osteoclastic activity. RAW 264.7 cells (25×103) were inoculated in 48-well plates. Cells were treated with serum-free conditioned media from breast cancer cells or 100 nM SHH or 100 ng/ml OPN on the following day. Media was changed every two days and the experiments were terminated either on day 6 (day 7 for knockdown experiments, with transfections being done on the sixth day). At the completion, cells were detached with 5% sodium hypochlorite and the wells were observed under a Nikon Eclipse TS 100 microscope at 10× magnification. […] The percentage of area resorbed was calculated using the NIS-Elements BR. 3.1 software.

Gli1 = test: GLI1 silencing by shRNA constructs in MDA-MB-435 cells, Western blot; type: cell-based, human
Experimental: To evaluate the functional effects of active Hedgehog signaling stable cell lines that were knocked down for GLI1 expression by RNA interference were generated. The efficacy of three shRNA constructs for silencing GLI1 expression was assessed.
Generation of Stable Transfectants—Endogenous GLI1 from MDA-MB-435 cells was silenced using shRNAs (short hairpin RNA) cloned into pSuperior.neo+gfp plasmid (OligoEngine, Seattle, Wash.) (TABLE 1). Introduction of double-stranded RNA has proven to be a powerful tool to suppress gene expression through a process known as RNA interference (P. A. Sharp, Genes Dev. 13, 139 (1999)). However, in some mammalian cells this can provoke a strong cytotoxic response (T. Hunter, T. Hunt, R. J. Jackson, H. D. Robertson, J. Biol. Chem. 250, 409 (1975)). This non-specific effect can be circumvented by use of synthetic short [21- to 22-nucleotide (nt)] interfering RNAs (siRNAs), which can mediate strong and specific suppression of gene expression (S. M. Elbashir et al., Nature 411, 494 (2001)). shRNAs included a target sequence sense strand, a short hairpin, and a target sequence antisense strand.
Western Blotting Analysis—Whole cell lysates were collected in Nonidet P-40 buffer (150 mM NaCl, 50 mM Tris, 1% Nonidet P-40). […] Secreted OPN was assessed by loading an equal quantity of protein from the serum-free conditioned medium. […]

Molecule | effect on ERCC1 up-regulation (ERCC1) | other results
C[C@H]1CC[C@]2(NC1)O[C@H]1C[C@H]3[C@@H]4CC[C@H]5C[C@@H](O)CC[C@]5(C)[C@H]4CC[C@]3(C)[C@H]1[C@@H]2C [tomatidine] | – | OPN promoter activity (OPN promoter): had no effect on the promoter activity; OPN promoter activity (OPN promoter; listed as Tomatidine): had no effect on the promoter activity of OPN
[Cr] [chromium] | blunted ERCC1 up-regulation | –
CO[C@H]1[C@@H](OC)C[C@H](C)[C@@H](OC)C2=CC(=O)C=C(NC(=O)/C(C)=C/C=C\[C@H](OC)[C@@H](OC(N)=O)/C(C)=C/[C@@H]1C)C2=O [herbimycin A] | blunted ERCC1 up-regulation | –
OPN: recombinant human osteopontin (R & D Systems) | – | numbers of TRAP stained multinucleate cells (RAW264.7 cells [1]): significant (p<0.005) increase; osteoclast activity (area resorbed) (RAW264.7 cells [2]): notably enhances (p<0.001) osteoclast activity
CCCC[C@@H](C=O)NC(=O)[C@H](CC(C)C)NC(=O)[C@H](CC(C)C)NC(C)=O [N-acetyl-leucyl-leucyl-norleucinal] (Ac-Leu-Leu-[Nle]-aldehyde) | blunted ERCC1 up-regulation | –
CC(=O)N[C@@H](CSC(=O)[C@]1([C@@H](O)C(C)C)NC(=O)[C@H](C)[C@@H]1O)C(=O)O [lactacystin] | blunted ERCC1 up-regulation | –
Cc1c2oc3c(C)ccc(C(=O)N[C@@H]4C(=O)N[C@H](C(C)C)C(=O)N5CCC[C@H]5C(=O)N(C)CC(=O)N(C)[C@@H](C(C)C)C(=O)O[C@@H]4C)c3nc-2c(C(=O)N[C@@H]2C(=O)N[C@H](C(C)C)C(=O)N3CCC[C@H]3C(=O)N(C)CC(=O)N(C)[C@@H](C(C)C)C(=O)O[C@@H]2C)c(N)c1=O [actinomycin D] (I: T[dV]P[Sar][NMeV] / II: T[dV]P[Sar][NMeV]; ester I:1-I:C, II:1-II:C; linker I:N-II:N via Actinocin(9to1)) | blunted ERCC1 up-regulation | –
[Pt] [platinum] | blunted ERCC1 up-regulation | –
Cc1cc(C)c(/C=C2\C(=O)Nc3ccccc32)[nH]1 [SU5416] | blunted ERCC1 up-regulation | –
GLI1 shRNA-2: shRNA construct targeting GLI1 mRNA sequence TCATCAACTCGCGATGCAC, position 325 (target site or template, no part of the molecule) | – | GLI1 silencing (Gli1; shRNA cloned into pSUPERIOR): effective at silencing GLI1; also recorded: more effective GLI1 silencing; OPN expression (Gli1; shRNA-transfected cells): decreased OPN expression
CC[C@H](C)[C@@H]1NC(=O)CNC(=O)[C@@H]2Cc3c([nH]c4cc(O)ccc34)[S+]([O-])C[C@@H](NC(=O)CNC1=O)C(=O)N[C@@H](CC(N)=O)C(=O)N1C[C@H](O)C[C@H]1C(=O)N[C@@H]([C@@H](C)[C@@H](O)CO)C(=O)N2 (stereo in doubt) [α-amanitin] | blunted ERCC1 up-regulation | –
C[C@@H]1C[C@@H]([C@H](O)CC2CC(=O)NC(=O)C2)C(=O)[C@@H](C)C1 [cycloheximide] | blunted ERCC1 up-regulation | –
B1 | blunted ERCC1 up-regulation | –
